These results are taken from patent US20230105082A1, “ANTIMICROBIAL COMPOSITIONS FOR PET FOOD PRODUCTS” (priority 2020, published 2023).

The test system of the assay is mixture in equal parts of Salmonella ser. Newport, Salmonella ser. Senftenberg, and Salmonella ser. Typhimurium. The experiment in a line: Salmonella inhibition in inoculated poultry fat (Examples 2, 4 and 5). The assay is classed as cell-based, Salmonella enterica subsp. enterica. The note with it: 1000 ppm in fat; 1 month after inoculation. The source says: Bacterial strains and culture medium Six serovars of Salmonella enterica subsp. enterica were used in these studies: Salmonella ser. Infantis (CIP103549), Salmonella ser. Mbandaka (CIP105859), and Salmonella ser. Senftenberg (isolate from pork/poultry from ANSES collection) for Example 1, Example 3 and Example 6 or Salmonella ser. Newport, Salmonella ser. Senftenberg, and Salmonella ser. Typhimurium (all isolated from pet food) for Example 2, Example 4, and Example 5. All strains were kept in collection at -80° C. in glycerol broth. Bacterial strains were cultured in Brain Heart Infusion agar and subcultured in Brain Heart Infusion broth at 37° C. for 20±2 h (BHI, VWR, USA). Salmonella count in poultry fat was carried out using Xylose Lysine Deoxycholate agar (XLD, VWR, USA) for Example 1, Example 3, and Example 6 or Violet Red Bile Glucose agar (VRBG, BioRad, USA) for Example 2, Example 4 and Example 5. Salmonella detection was done following modified EN ISO 6579-1 in 125 g of poultry fat.
Inoculum preparation Two types of matrix inoculum were used. […]
Antimicrobial efficacy of Compositions 5, 6, 7, 8, 16 was tested when added at 500 ppm in fat and compared to antimicrobial efficacy of phosphoric acid (Composition 1) when added at 1000 ppm in fat. The antimicrobial efficacy of Composition 16 at 1000 ppm in fat was also evaluated. […]

`O=P(O)(O)O` [Composition 1, Phosphoric acid]: the Salmonella detection result was “still detected”.
